# Assay results as given in ChEMBL document CHEMBL4364280 (Eur J Med Chem, 2019).
# Active and inactive are the calls of the source. The calls are words filed in the database; no cut-off is given here.
# Key:
# [1] = biological target: T1, 5-hydroxytryptamine receptor 6 (Homo sapiens, UniProt P50406); experiment: Displacement of [3H]-LSD from human 5-HT6R expressed in human HEK293 cells incubated for 1 hr by radioligand binding assay; type: cell-based
# D(2) dopamine receptor = D(2) dopamine receptor (Homo sapiens, UniProt P14416); experiment: Displacement of [3H]-raclopride from human D2L receptor expressed in human HEK293 cells incubated for 1 hr by radioligand binding assay; type: cell-based
# D(2) dopamine receptor, sequence (P14416 whole entry): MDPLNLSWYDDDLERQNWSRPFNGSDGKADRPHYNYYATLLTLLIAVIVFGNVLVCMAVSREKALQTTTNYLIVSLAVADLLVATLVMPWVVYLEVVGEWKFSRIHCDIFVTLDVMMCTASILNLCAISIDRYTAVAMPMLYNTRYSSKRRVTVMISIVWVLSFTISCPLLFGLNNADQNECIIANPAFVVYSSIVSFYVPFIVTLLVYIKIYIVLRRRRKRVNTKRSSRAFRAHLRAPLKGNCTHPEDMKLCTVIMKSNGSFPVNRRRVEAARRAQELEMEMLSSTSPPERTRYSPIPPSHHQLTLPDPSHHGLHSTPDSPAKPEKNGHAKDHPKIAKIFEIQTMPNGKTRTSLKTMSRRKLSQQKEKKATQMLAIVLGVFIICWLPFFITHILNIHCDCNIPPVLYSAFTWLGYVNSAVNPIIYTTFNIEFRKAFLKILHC
# [2] = biological target: T2, 5-hydroxytryptamine receptor 1A (Homo sapiens, UniProt P08908); experiment: Displacement of [3H]-8-OH-DPAT from human 5-HT1A expressed in human HEK293 cells assessed as inhibitory constant incubated for 1 hr by radioligand binding assay; type: cell-based
# T2 sequence (P08908 whole entry): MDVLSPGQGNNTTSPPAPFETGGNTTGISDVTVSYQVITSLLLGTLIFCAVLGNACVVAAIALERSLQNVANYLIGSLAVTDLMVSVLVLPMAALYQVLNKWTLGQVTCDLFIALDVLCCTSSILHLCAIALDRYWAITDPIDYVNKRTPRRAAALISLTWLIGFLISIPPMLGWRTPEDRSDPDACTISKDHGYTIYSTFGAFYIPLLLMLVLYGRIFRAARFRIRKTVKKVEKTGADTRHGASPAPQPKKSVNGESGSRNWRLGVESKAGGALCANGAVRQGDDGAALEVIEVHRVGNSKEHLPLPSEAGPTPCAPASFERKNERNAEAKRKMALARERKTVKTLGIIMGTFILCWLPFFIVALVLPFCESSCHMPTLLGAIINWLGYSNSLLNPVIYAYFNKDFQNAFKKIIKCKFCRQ
# [3] = biological target: 5-hydroxytryptamine receptor 7 (Homo sapiens, UniProt P34969); experiment: Displacement of [3H]-5-CT from human 5-HT7R expressed in human HEK293 cells assessed as inhibitory constant incubated for 1 hr by radioligand binding assay; type: cell-based
# 5-hydroxytryptamine receptor 7, sequence (P34969 whole entry): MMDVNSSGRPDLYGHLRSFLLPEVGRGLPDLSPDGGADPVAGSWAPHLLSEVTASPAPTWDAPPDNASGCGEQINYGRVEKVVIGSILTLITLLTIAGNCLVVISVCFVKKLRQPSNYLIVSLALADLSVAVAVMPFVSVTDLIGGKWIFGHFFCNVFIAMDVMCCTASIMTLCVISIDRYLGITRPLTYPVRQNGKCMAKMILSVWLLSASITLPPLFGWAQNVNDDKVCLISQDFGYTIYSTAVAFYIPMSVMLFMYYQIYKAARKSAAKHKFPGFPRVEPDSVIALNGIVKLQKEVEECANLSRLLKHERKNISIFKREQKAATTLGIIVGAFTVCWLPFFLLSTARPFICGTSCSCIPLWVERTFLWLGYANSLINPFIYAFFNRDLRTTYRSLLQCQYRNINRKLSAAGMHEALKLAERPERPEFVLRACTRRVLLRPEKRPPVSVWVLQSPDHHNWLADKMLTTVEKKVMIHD
# [4] = biological target: T1, 5-hydroxytryptamine receptor 6; experiment: Agonist activity at recombinant human 5HT6 receptor expressed in CHOK1 cells co-expressing Galpha16/aequorin assessed as increase in calcium mobilization and measured for 60 secs in presence of coelenterazine by luminescence assay relative to control; type: functional, cell-based
# [5] = biological target: 5-hydroxytryptamine receptor 2A (Homo sapiens, UniProt P28223); experiment: Displacement of [3H]-Ketanserin from human 5-HT2A expressed in CHO-K1 cells incubated for […] by radioligand binding assay; type: cell-based
# 5-hydroxytryptamine receptor 2A, sequence (P28223 whole entry): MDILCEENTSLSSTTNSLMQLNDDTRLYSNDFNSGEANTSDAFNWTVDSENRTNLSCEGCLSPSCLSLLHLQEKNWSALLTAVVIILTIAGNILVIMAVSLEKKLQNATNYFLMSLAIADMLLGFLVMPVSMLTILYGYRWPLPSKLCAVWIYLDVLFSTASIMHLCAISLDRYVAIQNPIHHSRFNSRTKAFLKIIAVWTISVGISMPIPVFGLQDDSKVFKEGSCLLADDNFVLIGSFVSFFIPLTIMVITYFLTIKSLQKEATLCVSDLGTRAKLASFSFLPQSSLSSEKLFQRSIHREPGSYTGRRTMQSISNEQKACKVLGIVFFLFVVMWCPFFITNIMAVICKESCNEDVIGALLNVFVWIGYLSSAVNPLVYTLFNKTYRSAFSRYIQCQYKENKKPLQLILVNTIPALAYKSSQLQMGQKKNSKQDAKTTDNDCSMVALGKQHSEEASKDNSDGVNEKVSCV
# [6] = biological target: T1, 5-hydroxytryptamine receptor 6; experiment: Antagonist activity at recombinant human 5HT6 receptor expressed in CHOK1 cells co-expressing Galpha16/aequorin assessed as reduction in serotonin-induced calcium mobilization flux preincubated for 30 mins followed by serotonin addition in presence of coelenterazine h by luminescence assay; type: functional, cell-based
# Rattus norvegicus [7] = experiment: Antidepressant activity in Wistar rat assessed as reduction in immobility at 1 mg/kg, ip measured after 60 mins by forced swim test; type: functional; set-up: scale not given: the % may be the effect or the level left
# Rattus norvegicus [8] = experiment: Antidepressant activity in Wistar rat assessed as total distance moved at 1 mg/kg, ip pretreated for 60 mins and measured for 5 mins by open field test (reference value: 929 +/- 36 cm); type: functional
# Rattus norvegicus [9] = experiment: Antidepressant activity in Wistar rat assessed as ambulation-X movement moved at 1 mg/kg, ip pretreated for 60 mins and measured for 5 mins by open field test (reference value: 213 +/- 13); type: functional
# Rattus norvegicus [10] = experiment: Antidepressant activity in Wistar rat assessed as ambulation-Y movement moved at 1 mg/kg, ip pretreated for 60 mins and measured for 5 mins by open field test (reference value: 187 +/- 14); type: functional
# Rattus norvegicus [11] = experiment: Antidepressant activity in Wistar rat assessed as rear movement moved at 1 mg/kg, ip pretreated for 60 mins and measured for 5 mins by open field test (reference value: 68 +/- 7); type: functional
# SH-SY5Y = experiment: Cytotoxicity against human SH-SY5Y cells assessed as decrease in cell viability at 100 uM incubated for 72 hrs by MTS assay; type: cell-based
# [12] = Mutagenicity in Salmonella typhimurium TA100 assessed as fold increase over MCB at 1 uM preincubated for 90 mins and measured after 72 hrs by Ames test; type: toxicity; conditions: salmonella enterica subsp. enterica serovar typhimurium
# [13] = Mutagenicity in Salmonella typhimurium TA100 assessed as fold increase over MCB at 10 uM preincubated for 90 mins and measured after 72 hrs by Ames test; type: toxicity; conditions: salmonella enterica subsp. enterica serovar typhimurium
# [14] = Mutagenicity in Salmonella typhimurium TA100 assessed as increase in revertant colonies at 1 uM preincubated for 90 mins and measured after 72 hrs by Ames test; type: toxicity; conditions: salmonella enterica subsp. enterica serovar typhimurium
# [15] = Mutagenicity in Salmonella typhimurium TA100 assessed as increase in revertant colonies at 10 uM preincubated for 90 mins and measured after 72 hrs by Ames test; type: toxicity; conditions: salmonella enterica subsp. enterica serovar typhimurium
# [16] = Selectivity ratio of CC50 for cytotoxicity against human SH-SY5Y cells to ratio of Ki for human 5-HT6R expressed in human HEK293 cells
# [17] = Ratio of test compound CC50 to doxorubicin CC50 for cytotoxicity against human SH-SY5Y cells incubated for 72 hrs by MTS assay; type: cell-based
# Rattus norvegicus [18] = experiment: Antidepressant activity in Wistar rat assessed as reduction in immobility at 10 mg/kg, ip measured after 30 mins by forced swim test; type: functional, organism-based
# Rattus norvegicus [19] = experiment: Antidepressant activity in Wistar rat assessed as reduction in immobility at 0.1 to 1 mg/kg, ip measured after 60 mins by forced swim test; type: functional, organism-based
# Rattus norvegicus [20] = experiment: Antidepressant activity in Wistar rat assessed as reduction in immobility at 0.3 to 3 mg/kg, ip measured after 60 mins by forced swim test; type: functional; set-up: scale not given: the % may be the effect or the level left
# Rattus norvegicus [21] = experiment: Antidepressant activity in Wistar rat assessed as reduction in immobility at 0.1 mg/kg, ip measured after 60 mins by forced swim test; type: functional, organism-based
# Rattus norvegicus [22] = experiment: Antidepressant-like activity in Wistar rat assessed as total distance moved at 0.3 mg/kg, ip pretreated for 60 mins and measured for 5 mins by open field test (reference value: 2165 +/- 119 cm); type: functional
# Rattus norvegicus [23] = experiment: Antidepressant activity in Wistar rat assessed as ambulation-X movement moved at 0.3 mg/kg, ip pretreated for 60 mins and measured for 5 mins by open field test (reference value: 190 +/- 12); type: functional
# Rattus norvegicus [24] = experiment: Antidepressant activity in Wistar rat assessed as ambulation-Y movement moved at 0.3 mg/kg, ip pretreated for 60 mins and measured for 5 mins by open field test (reference value: 187 +/- 15); type: functional
# Rattus norvegicus [25] = experiment: Antidepressant activity in Wistar rat assessed as rear movement moved at 0.3 mg/kg, ip pretreated for 60 mins and measured for 5 mins by open field test (reference value: 57 +/- 6); type: functional
# T1 sequence (P50406 whole entry): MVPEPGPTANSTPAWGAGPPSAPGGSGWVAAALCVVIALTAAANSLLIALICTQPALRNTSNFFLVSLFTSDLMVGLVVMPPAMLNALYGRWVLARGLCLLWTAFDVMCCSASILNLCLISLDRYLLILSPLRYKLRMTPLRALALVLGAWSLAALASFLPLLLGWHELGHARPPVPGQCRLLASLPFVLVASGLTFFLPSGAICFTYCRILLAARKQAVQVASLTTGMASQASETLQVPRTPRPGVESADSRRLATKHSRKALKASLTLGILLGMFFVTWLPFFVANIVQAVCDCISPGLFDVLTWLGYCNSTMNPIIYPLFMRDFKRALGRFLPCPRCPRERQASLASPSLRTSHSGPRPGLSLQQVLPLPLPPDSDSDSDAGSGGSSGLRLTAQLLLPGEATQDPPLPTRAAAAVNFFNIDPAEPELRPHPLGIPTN
Compound,Ki [1],Ki (D(2) dopamine receptor),Ki [2],Ki [3],Ki [5],further results
CC([Se]c1ccccc1)c1nc(N)nc(N2CCN(C)CC2)n1 (stereo not drawn),–,0.656 µM,–,–,–,–
CN1CCN(c2nc(N)nc(C[Se]c3ccccc3)n2)CC1,–,0.506 µM,–,–,–,–
O=S(=O)(c1ccccc1)c1cnc2c(N3CCNCC3)cccc2c1,–,–,–,–,–,Emax [4]: 2%
CN1CCN(c2nc(N)nc(COc3cccc(Cl)c3)n2)CC1,0.148 µM,0.674 µM,7.5 µM,5.82 µM,–,–
CN1CCN2c3ccccc3Cc3ccccc3C2C1 (stereo not drawn),–,–,–,–,–,Emax [4]: 1%
CC(Oc1ccccc1Cl)c1nc(N)nc(N2CCN(C)CC2)n1 (stereo not drawn),0.023 µM,1 µM,4.54 µM,38.7 µM,1.83 µM,Emax [4]: 1%; Kb [6]: 0.003 µM; Activity (Rattus norvegicus [7]): 22%; Activity (Rattus norvegicus [8]): 1005 cm; Activity (Rattus norvegicus [9]): 269; Activity (Rattus norvegicus [10]): 227; Activity (Rattus norvegicus [11]): 46; Activity (SH-SY5Y): Toxic; fold change (FC) [12]: 0.73; fold change (FC) [13]: 1; Activity [14]: 8; Activity [15]: 11; Selectivity ratio [16]: >4000; selectivity ratio at 72 h [17]: 100
COc1ccc(S(=O)(=O)Nc2cc(Cl)cc(Cl)c2OC)cc1N1CCNCC1,–,–,–,–,–,Activity (Rattus norvegicus [18]): Active
CC(Sc1ccccc1Cl)c1nc(N)nc(N2CCN(C)CC2)n1 (stereo not drawn),0.019 µM,0.52 µM,3.38 µM,4.57 µM,0.407 µM,Emax [4]: 1%; Kb [6]: 0.0029 µM; Activity (Rattus norvegicus [19]): inactive; Activity (SH-SY5Y): Toxic; fold change (FC) [12]: 0.94; fold change (FC) [13]: 0.76; Activity [14]: 10.33; Activity [15]: 8.33; Selectivity ratio [16]: >4000; selectivity ratio at 72 h [17]: 100
CN1CCN(c2nc(N)nc(CS(=O)(=O)c3ccccc3Cl)n2)CC1,3.57 µM,50.1 µM,> 1000 µM,98.4 µM,11.6 µM,–
Cc1cc(Cl)ccc1OCc1nc(N)nc(N2CCN(C)CC2)n1,0.911 µM,4.37 µM,7.69 µM,15.2 µM,–,–
CN1CCN(c2nc(N)nc(COc3ccccc3)n2)CC1,–,1.35 µM,8.73 µM,9.53 µM,2.63 µM,–
Cc1cc(OCc2nc(N)nc(N3CCN(C)CC3)n2)ccc1Cl,0.355 µM,1.22 µM,3.58 µM,5.84 µM,0.197 µM,–
Cc1ccc(OCc2nc(N)nc(N3CCN(C)CC3)n2)cc1,0.235 µM,2.92 µM,28.5 µM,16.1 µM,–,–

# Further compounds by falling Ki [1], results first:
Ki [1],Ki (D(2) dopamine receptor),Ki [2],Ki [3],Ki [5],Compound,further results
0.207 µM,0.74 µM,15.1 µM,10.7 µM,2.27 µM,Cc1cccc(OCc2nc(N)nc(N3CCN(C)CC3)n2)c1,–
0.129 µM,2.36 µM,5.47 µM,9.25 µM,–,CN1CCN(c2nc(N)nc(COc3ccccc3Cl)n2)CC1,–
0.128 µM,1.23 µM,1.61 µM,3.8 µM,–,CN1CCN(c2nc(N)nc(COc3ccc(Cl)cc3Cl)n2)CC1,–
0.126 µM,0.329 µM,1.68 µM,0.614 µM,–,CN1CCN(c2nc(N)nc(CSc3ccccc3Cl)n2)CC1,–
0.118 µM,0.566 µM,3.44 µM,8.36 µM,0.59 µM,CC(Oc1cccc(Cl)c1)c1nc(N)nc(N2CCN(C)CC2)n1 (stereo not drawn),–
0.087 µM,4.25 µM,14.2 µM,0.514 µM,17.2 µM,Cc1ccccc1OCc1nc(N)nc(N2CCN(C)CC2)n1,–
0.026 µM,0.734 µM,4.39 µM,2.87 µM,0.197 µM,CN1CCN(c2nc(N)nc(CSc3ccccc3)n2)CC1,–
0.011 µM,–,–,–,–,Cc1ccc(C(C)C)c(OCc2nc(N)nc(N3CCN(C)CC3)n2)c1,Emax [4]: 1%; Kb [6]: 0.0046 µM; Activity (Rattus norvegicus [20]): 20%; Activity (Rattus norvegicus [21]): inactive; Activity (Rattus norvegicus [22]): 2833 cm; Activity (Rattus norvegicus [23]): 307; Activity (Rattus norvegicus [24]): 290; Activity (Rattus norvegicus [25]): 56; Activity (SH-SY5Y): Toxic; fold change (FC) [12]: 0.55; fold change (FC) [13]: 0.47; Activity [14]: 4.67; Activity [15]: 4; Selectivity ratio [16]: >4000; selectivity ratio at 72 h [17]: 100
